Series [1] can be described thus: Stability of warheads and inhibitors (solid, PBS, hydrolysis). Type of series: physicochemical. To be noted: 24 h in aqueous buffer, then sodium cyanoborohydride, mass spectrometry. Here is the method: (§1) To be suitable for chemical probe and therapeutic applications, the warhead should show good stability. In general, we found the iminolactam warheads to be quite stable. Compound 1 was stable as a solid at room temperature for over 3 months. […] After 24‐h in aqueous buffer, compounds were treated with sodium cyanoborohydride. […] The synthetic strategy of in situ formation of imines by periodate treatment was pursued to avoid concerns of warhead reactivity with the ligand itself to either the peptide backbone or the phenoxyphenyl aryl group. This appears to have been unnecessary, at least for the iminolactam warhead. […] The more reactive ester imine may be forming semi‐stable cyclized products with the amide backbone, which have been observed previously with peptide aldehydes.^[ [51], [52] ^] Due to these issues, we selected compound P1b for further characterization.

Series [2] in a line: Stability in bovine serum-containing cell media (LC/MS). The series is classed as in vitro ADME. To be noted: 20 µM, DMEM with 15% FBS, 24 h, 37 °C. The method, then:
as §1
Figure S17. Stability of cyclic imine inhibitors to serum-containing cell culture media. […] The protein fraction was then precipitated with addition of 2 volumes of 1:1 EtOH:acetonitrile and overnight incubation at -20 °C. Samples were centrifuged 16,000 g for 30 minutes. Supernatants were filtered through a 0.5 micro spin filter and evaporated with a speed vacuum. The compounds were resuspended in PBS and analzyed by LC/MS. […] Overlaid spectra of UV at 215 nm are shown and are representative of 3 replicates.

A further series deals with T1, CBX8 ChD (Homo sapiens, UniProt Q9HC52).
T1 construct: CBX chromodomain constructs (addgene plasmid #25158 (CBX2), and #62514 (CBX8, provided by Cheryl Arrowsmith)); 6His; host or cells: E. coli (BL21 CodonPlus RIL or Rosetta 2)
T1 sequence (Q9HC52 11-69 limits assumed): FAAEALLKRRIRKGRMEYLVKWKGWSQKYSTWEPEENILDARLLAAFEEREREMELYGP
The series is described as follows: Covalent conjugation to CBX8 ChD, UV integration on LC/MS. The series is classed as binding. Here is the method: Percent covalent conjugation was determined by UV integration on LC/MS after overnight incubation at 10 µM compound and protein at 37 °C.
2.3 In Vitro CBX ChD Labeling with Covalent Inhibitors. 10 µM purified CBX ChD was incubated with imine covalent inhibitors (10 µM) in PBS buffer (pH 7) at 37 °C or R.T. Protein labeling samples were precipitated using MeOH and CHCl3 at the volume ratio of MeOH:CHCl3:sample=3:0.5:1, washed twice using cold MeOH, and air dried. Dried protein pellets were resuspended in aqueous buffer (0.1% formic acid, 300 mM ammonium acetate).
Precipitated samples were analyzed on a C4 reversed-phase column (e.g., 2.1 × 150 mm, 3–5 µm particle size) using a linear gradient of solvent A (0.1% formic acid in water) and solvent B (0.1% formic acid in acetonitrile). Elution was monitored by UV absorbance at 215 nm, and mass spectra were acquired in positive ion mode to confirm the identities of unlabeled and labeled protein species.
Labeling yield (%)=AlabeledAlabeled+Aunlabeled×100
For P2, 10 µM purified CBX ChD was incubated with P2 (10 µM) in PBS buffer (pH 7) at 37 °C or R.T. for 1.5 hours, as well as 12 hours overnight. […] Dried protein pellets were resuspended in aqueous buffer (0.1% formic acid, 300 mM ammonium acetate), and protein labeling were characterized and quantitated by ESI LC-MS.

The target in series [3] is T2, CBX2 ChD (Homo sapiens, UniProt Q14781).
T2 construct: CBX chromodomain constructs (addgene plasmid #25158 (CBX2), and #62514 (CBX8, provided by Cheryl Arrowsmith)); 6His; host or cells: E. coli (BL21 CodonPlus RIL or Rosetta 2)
T2 sequence (Q14781 12-70 limits assumed): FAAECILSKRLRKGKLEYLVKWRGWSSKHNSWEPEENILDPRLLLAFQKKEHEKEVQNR
The series is described as follows: Labeling of CBX2 ChD (gel shift, MS). Type of series: binding. To be noted: gel shift or MS. The method, then: (§2) Observed masses are shown (expected average mass for CBX8 ChD = 8792 Da). The observed mass difference (913 Da) agrees with the expected mass change of 913 Da. b) Labeled protein was detected by gel shift on 16.5% Tris‐Tricine SDS‐PAGE. […] Gel analysis was conducted on a 2.5% agarose gel in 10 mM sodium borate buffer. […] Assays were conducted using SW2_113 as an FP probe (Figure S20) at 100 nM. All proteins were used at 2 µM in PBS (pH 7), 0.02% Tween 20. Error bars represent SD. […] (μM); no other compound label is printed beside the IC50 lines
We confirmed protein labeling through a gel shift assay on Tris‐Tricine SDS‐PAGE (Figure 5b). […] To validate labeling of the targeted tyrosine residue (Y39), this amino acid was mutated to phenylalanine. […] We additionally confirmed the labeling site as Y39 by trypsin digest and LC‐MS/MS analysis (Figure S9B).
For P2, 10 µM purified CBX ChD was incubated with P2 (10 µM) in PBS buffer (pH 7) at 37 °C or R.T. for 1.5 hours, as well as 12 hours overnight. Samples were precipitated using MeOH and CHCl3 at the volume ratio of MeOH:CHCl3:sample=3:0.5:1, washed twice using cold MeOH, and air dried. Dried protein pellets were resuspended in aqueous buffer (0.1% formic acid, 300 mM ammonium acetate), and protein labeling were characterized and quantitated by ESI LC-MS.
On the technique in general: In EMSA bound probe runs differently from free probe, usually more slowly.

The target in series [4] is T2, CBX2 ChD. Nature of the series: Time-dependent fluorescence polarization displacement assay, CBX2 ChD. Type of series: binding. To be noted: for pIC50: Figure 5d, CBX2 ChD 2 µM, probe 100 nM. Here is the method:
as §2
2.2 Fluorescence Displacement Assay to Evaluate Time-dependent potency of Imine Covalent Inhibitors to CBX ChD. Fluorescence polarization (FP) was measured by titration of CBX ChDs (CBX8 ChD/CBX8 ChD Y39F/CBX2 ChD) to a fluoresceine-labelled probe as previously reported ^1. Fluorescence displacement assays were performed in black 384-well plates with optical bottoms. Buffer used in FP assays consists of 100 mM Na2HPO4, 150 mM NaCl, 0.02% Tween 20. […] Two-fold dilutions of covalent inhibitors were used, starting with 100 µM as highest peptide concentration to 0.049 µM as the lowest. Four replicates were tested at each concentration. Fluorescence anisotropy was read at different time points. Raw data were analyzed using GraphPad Prism 7 following a “one site-Fit logIC50” competition model with any outliers (95 % confidence interval) being excluded.
Time-dependent fluorescence displacement assay Fluorescence polarization (FP) was measured by titration of CBX ChDs (CBX8 ChD/CBX8 ChD Y39F/CBX2 ChD) to a fluorescein-labelled probe as previously reported.^8 Fluorescence displacement assays were performed in black 384-well plates with optical bottoms. Buffer used in FP assays consists of 100 mM Na2HPO4, 150 mM NaCl, 0.02% Tween 20. […] Fluorescence anisotropy was read at different time points. […] Raw data were analyzed using GraphPad Prism 7 following a “one site-Fit logIC50” competition model with any outliers (95 % confidence interval) being excluded.
Background: Fluorescence polarisation rises when a labelled molecule tumbles more slowly, as on binding a larger partner.

Structures are written as SMILES. pIC50: −log10 of the molar value. Entries after “also recorded” stand apart in the source; their conditions may differ. Like-named read-outs stand apart in the source and are kept apart here.

As for `CC[C@H](C)[C@H](NC(=O)[C@@H](NC(=O)c1ccc(Oc2ccccc2)cc1)C1CCCC1)C(=O)N[C@@H](CCCCN(CC)CCCCCCN1CCN=CC1=O)C(=O)N[C@@H](CO)C(N)=O` [P1b], in series [1], the “stability to long‐term incubation in PBS” value is given as “stability over the 24 h”. Moreover, in series [2], the “stability in bovine serum‐containing cell media” value is on record as “no degradation or loss to the protein fraction; also recorded: minimal loss of compounds to the precipitated protein fraction or degradation”. On CBX8 ChD (10 µM compound and protein, 37 °C, overnight), the “% conj. to CBX8 at 37 °C Overnight 10 μM each” value is on record as ~90%. Further, the “effect of GSH on CBX8 ChD labeling yield” value on CBX8 ChD (presence of 10 mM GSH) was “no effect on yield”. Besides, at CBX2 ChD [3], the “labeling of CBX2 ChD” value is reported as “no labeled protein was detected”. Also, the pIC50 – broadly, the negative decadic logarithm of the IC50, by convention in mol/L – on CBX2 ChD [4] (read-out: IC50 at time 0) is 4.77; at CBX2 ChD [4] (IC50 at 20 h), 4.82. Further, on CBX2 ChD [4] (binding to CBX2), the “change in potency in time‐dependent FP assay” value is on record as “no change in potency”.
